Data from ChEMBL document CHEMBL3272324, “Studies on antitumor agents, 2. Syntheses and antitumor activities of 1-(tetrahydro-2-furanyl)-5-fluorouracil and 1,3-bis(tetrahydro-2-furanyl)-5-fluorouracil” (J Med Chem, 1978).

Assays:
Sarcoma-180 [1] = assay: Antitumor activity against mouse Sarcoma 180 cells allografted in ICR mouse assessed as tumor inhibition at 0.15 mmol/kg, po qd for 7 days measured on day 10 relative to control; assay type: functional; settings: Sarcoma-180, po, read-out: TGI
[2] = Antitumor activity against rat AH-130 cells allografted in Donryu rat assessed as tumor inhibition at 0.45 mmol/kg, po qd for 7 days measured on day 10 relative to control; assay type: functional; settings: read-out: TGI
YOSHIDA [3] = assay: Antitumor activity against rat Yoshida cells allografted in Donryu rat assessed as tumor inhibition at 0.15 mmol/kg, po qd for 7 days measured on day 10 relative to control; assay type: functional; settings: read-out: TGI
Sarcoma-180 [4] = assay: Antitumor activity against mouse Sarcoma 180 cells allografted in ICR mouse assessed as tumor inhibition at 0.45 mmol/kg, po qd for 7 days measured on day 10 relative to control; assay type: functional; settings: Sarcoma-180, po, read-out: TGI
[5] = Antitumor activity against mouse Ehrlich carcinoma cells allografted in ddY mouse assessed as tumor inhibition at 0.15 mmol/kg, po qd for 7 days measured on day 10 relative to control; assay type: functional; settings: read-out: TGI
Rattus norvegicus [6] = assay: Toxicity in Donryu rat allografted with rat AH-130 cells assessed as body weight change at 0.45 mmol/kg, po administered for 7 days measured on day 10 relative to control; assay type: organism-based; settings: in vivo, 168 h
W256 [7] = assay: Antitumor activity against rat Walker 256 cells allografted in Wistar rat assessed as tumor inhibition at 0.15 mmol/kg, po qd for 7 days measured on day 10 relative to control; assay type: functional; settings: read-out: TGI
[8] = Antitumor activity against rat AH-130 cells allografted in Donryu rat assessed as tumor inhibition at 0.15 mmol/kg, po qd for 7 days measured on day 10 relative to control; assay type: functional; settings: read-out: TGI
[9] = Antitumor activity against mouse Ehrlich carcinoma cells allografted in ddY mouse assessed as tumor inhibition at 0.45 mmol/kg, po qd for 7 days measured on day 10 relative to control; assay type: functional; settings: read-out: TGI
W256 [10] = assay: Antitumor activity against rat Walker 256 cells allografted in Wistar rat assessed as tumor inhibition at 0.45 mmol/kg, po qd for 7 days measured on day 10 relative to control; assay type: functional; settings: read-out: TGI
YOSHIDA [11] = assay: Antitumor activity against rat Yoshida cells allografted in Donryu rat assessed as tumor inhibition at 0.45 mmol/kg, po qd for 7 days measured on day 10 relative to control; assay type: functional; settings: read-out: TGI
Rattus norvegicus [12] = assay: Toxicity in Donryu rat allografted with rat AH-130 cells assessed as body weight change at 0.15 mmol/kg, po administered for 7 days measured on day 10 relative to control; assay type: organism-based; settings: in vivo, 168 h
[13] = Toxicity in po dosed ddY mouse after 3 weeks by up and down method; assay type: organism-based; settings: in vivo
[14] = Toxicity in po dosed ddY mouse after 3 days by up and down method; assay type: organism-based; settings: in vivo
Rattus norvegicus [15] = assay: Toxicity in Donryu rat allografted with rat AH-130 cells assessed as body weight change at 0.08 mmol/kg, po administered for 7 days measured on day 10 relative to control; assay type: organism-based; settings: in vivo, 168 h
W256 [16] = assay: Antitumor activity against rat Walker 256 cells allografted in Wistar rat assessed as tumor inhibition at 0.08 mmol/kg, po qd for 7 days measured on day 10 relative to control; assay type: functional; settings: read-out: TGI
[17] = Antitumor activity against mouse Ehrlich carcinoma cells allografted in ddY mouse assessed as tumor inhibition at 0.08 mmol/kg, po qd for 7 days measured on day 10 relative to control; assay type: functional; settings: read-out: TGI
Sarcoma-180 [18] = assay: Antitumor activity against mouse Sarcoma 180 cells allografted in ICR mouse assessed as tumor inhibition at 0.08 mmol/kg, po qd for 7 days measured on day 10 relative to control; assay type: functional; settings: Sarcoma-180, po, read-out: TGI
YOSHIDA [19] = assay: Antitumor activity against rat Yoshida cells allografted in Donryu rat assessed as tumor inhibition at 0.08 mmol/kg, po qd for 7 days measured on day 10 relative to control; assay type: functional; settings: read-out: TGI
[20] = Antitumor activity against rat AH-130 cells allografted in Donryu rat assessed as tumor inhibition at 0.08 mmol/kg, po qd for 7 days measured on day 10 relative to control; assay type: functional; settings: read-out: TGI

| SMILES | inhibition in vivo at 150 µmol/kg (Sarcoma-180 [1]) | inhibition in vivo at 450 µmol/kg [2] | inhibition in vivo at 150 µmol/kg (YOSHIDA [3]) | inhibition in vivo at 450 µmol/kg (Sarcoma-180 [4]) | inhibition in vivo at 150 µmol/kg [5] | Activity (Rattus norvegicus [6]) | inhibition in vivo at 150 µmol/kg (W256 [7]) | inhibition in vivo at 150 µmol/kg [8] | inhibition in vivo at 450 µmol/kg [9] | inhibition in vivo at 450 µmol/kg (W256 [10]) | inhibition in vivo at 450 µmol/kg (YOSHIDA [11]) | Activity (Rattus norvegicus [12]) | LD50 at 504 h [13] | LD50 at 72 h [14] | Activity (Rattus norvegicus [15]) | inhibition in vivo at 80 µmol/kg (W256 [16]) | inhibition in vivo at 80 µmol/kg [17] | inhibition in vivo at 80 µmol/kg (Sarcoma-180 [18]) | inhibition in vivo at 80 µmol/kg (YOSHIDA [19]) | inhibition in vivo at 80 µmol/kg [20] |
| --- | --- | --- | --- | --- | --- | --- | --- | --- | --- | --- | --- | --- | --- | --- | --- | --- | --- | --- | --- | --- |
| O=c1[nH]c(=O)n(C2CCCO2)cc1F (stereo not drawn) [TEGAFUR] | 38% | 35% | 32% | 37% | 38% | 40.9 g | 27% | 22% | 54% | 31% | 52% |  |  |  |  |  |  |  |  |  |
| O=c1[nH]cc(F)c(=O)n1C1CCCO1 (stereo not drawn) |  | 80% |  |  |  | 21.7 g |  | 45% |  |  |  | 47.3 g |  |  |  |  |  |  |  |  |
| O=c1c(F)cn(C2CCCO2)c(=O)n1C1CCCO1 (stereo not drawn) | 45% | 44% | 43% | 56% | 50% |  | 27% | 32% | 61% | 37% | 58% |  | 2660 mg/kg | 2900 mg/kg |  |  |  |  |  |  |
| O=c1[nH]cc(F)c(=O)[nH]1 [FLUOROURACIL] |  |  |  |  |  |  |  |  |  |  |  |  |  |  | 42.1 g | 24% | 42% | 48% | 41% | 33% |
